Reference: patent US20230333087A1, “METHODS FOR MONITORING PATIENT RESPONSE TO TREATMENT OF RETINAL OXIDATIVE DISEASES” (BioJiva LLC, priority 2022, published 2023)

Columns and labels:
[1] = system: 4-HNE and 4-HHE formation; details: present in lipid bilayers; cited from earlier work
LPO and cell death = details: FRDA, INAD, PSP; cited from earlier work
[2] = clinical trials; cited from earlier work
[3] = system: iron-induced retinal autofluorescence and degeneration; assay: Iron-induced retinal autofluorescence and degeneration, cSLO and OCT imaging 1 week after intravitreal iron; assay type: in vivo, C57BL/6J mice; details: DHA diet versus previous study with regular chow without DHA (LabDiet 5001)
Protocol: To evaluate the protective effect of 0.25% D-DHA diet, confocal scanning laser ophthalmoscopy (cSLO) and optical coherence tomography (OCT) were employed for in vivo imaging at 1 week after injections. For the cSLO imaging, both blue autofluorescence (BAF) and near-infra autofluorescence (IRAF) were performed.
Adult male wild-type C57BL/6J mice (Stock No.000664, Jackson Labs, Bar Harbor, ME, USA) were housed in standard conditions under cyclic light (12 h:12 h light-dark cycle). Mice had ad libitum access to water and food. Beginning at 2 mo of age, mice were placed on the AIN93G diet described above, supplemented with 0.25% D-DHA or DHA (control diet) for 1 week, 2 weeks, 3 weeks, or 4 weeks prior to the intravitreal injection. Mice were given an intravitreal injection of 1 µl 0.5 mM ferric ammonium citrate diluted in 0.9% NaCl (saline) (MP Biomedicals LLC, Santa Ana, CA) or
1 µl of saline as control. Intravitreal injections were performed as previously described ^54. Mice were continued on respective diet until their final evaluation. All housing and procedures were performed according to the NIH Guide for the Care and Use of Experimental Animals and approved by the University of Pennsylvania Animal Care and Use Committee.
Mice were given general anesthesia and placed on a platform. Pupils were dilated with 1% tropicamide saline solution (Akorn, Inc., Lake Forest, IL). Optical coherence tomography (OCT) imaging was performed for visualization of the retinal structure by using a Bioptigen
Envisu (R2200, Bioptigen Inc., Durham, NC, USA) coupled to a broadband LED light source (T870-HP, Superlum Diodes, Ltd, Ireland). Confocal scanning laser ophthalmoscopy (cSLO) (Spectralis HRA, Heidelberg Engineering, Franklin, MA, USA) was used for visualization of retinal AF using BluePeak™ or simply blue AF (488 nm excitation) and near-infrared AF (787 nm excitation) imaging modes.

[4] = system: human RPE cell line ARPE-19; details: high-intensity light exposure; cited from earlier work

Which “4-HNE and 4-HHE formation” value [1] does the source give for `[2H]C([2H])(/C=C\CCCCC)/C=C\CCCCCCCC(=O)O` [D2-linoleic acid] here?
The value was “downregulated not just 4-HNE but also 4-HHE formation”.

Which “LPO and cell death” value (LPO and cell death) does the source give for `[2H]C([2H])(/C=C\CCCCC)/C=C\CCCCCCCC(=O)OCC` [RT001, 11,11-D2-Lin] here?
The value was “inhibited LPO and rescued cell death”.

What about the safety and tolerability [2] of the same compound?
The safety and tolerability was “notable safety and tolerability”.

Which “severity of IVT iron induced damage” value [3] does the source give for “docosahexaenoic acid [DHA, reference compound]” here?
Its value is “less severe”.

And the “oxidative stress and LPO” value [4]?
Its value is “increased oxidative stress and LPO”.
